From the NIST ThermoML archive (doi:10.1016/j.fluid.2010.03.012)

Test: osmotic coefficient (dimensionless); mn = molality of the nth substance listed, in mol/kg
Settings: 101 kPa, Liquid, isopiestic method

C1CN2CN3CCN(CN1C3)C2 [1,3,6,8-tetraazatricyclo[4.4.1.1(3,8)]dodecane] + O
Settings	osmotic coefficient
288.15 K, m1 = 0.2149	0.9605
288.15 K, m1 = 0.2154	0.9583
288.15 K, m1 = 0.3036	0.9533
288.15 K, m1 = 0.3041	0.9518
288.15 K, m1 = 0.5049	0.9571
288.15 K, m1 = 0.5066	0.9563
288.15 K, m1 = 0.603	0.9824
288.15 K, m1 = 0.604	0.9816
288.15 K, m1 = 0.7629	1.016
288.15 K, m1 = 0.7638	1.015
288.15 K, m1 = 1.011	1.1
293.15 K, m1 = 0.2023	0.991
293.15 K, m1 = 0.2031	0.9887
293.15 K, m1 = 0.3454	0.9917
293.15 K, m1 = 0.3458	0.9907
293.15 K, m1 = 0.5003	0.993
293.15 K, m1 = 0.5009	0.9919
293.15 K, m1 = 0.7613	1.035
293.15 K, m1 = 0.7629	1.033
293.15 K, m1 = 0.9099	1.056
293.15 K, m1 = 0.9108	1.055
293.15 K, m1 = 1.068	1.119
293.15 K, m1 = 1.069	1.118
298.15 K, m1 = 0.2201	1.014
298.15 K, m1 = 0.2205	1.012
298.15 K, m1 = 0.3086	1.017
298.15 K, m1 = 0.3087	1.016
298.15 K, m1 = 0.5052	1.028
298.15 K, m1 = 0.5055	1.027
298.15 K, m1 = 0.562	1.032
298.15 K, m1 = 0.5624	1.032
298.15 K, m1 = 0.7125	1.045
298.15 K, m1 = 0.9849	1.075
298.15 K, m1 = 0.9867	1.073
303.15 K, m1 = 0.2074	0.972
303.15 K, m1 = 0.2079	0.9707
303.15 K, m1 = 0.3266	0.9871
303.15 K, m1 = 0.3271	0.9863
303.15 K, m1 = 0.5022	1.015
303.15 K, m1 = 0.5029	1.014
303.15 K, m1 = 0.6864	1.033
303.15 K, m1 = 0.6868	1.034
303.15 K, m1 = 0.7946	1.057
303.15 K, m1 = 0.7955	1.057
303.15 K, m1 = 1.028	1.103
303.15 K, m1 = 1.029	1.102
